Experimental findings from ChEMBL document CHEMBL1201862, “PubChem BioAssay data set” (2004) are described below.

Each structure is given as a SMILES string.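 Cultured in 96-well plates, cells were exposed to test compound for 48 hours across five concentrations. At the GI50, growth is halved.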 Activity calls are given as the source filed them. Cut-off read from the data, not from the text of the source: active = GI50 up to about 1.1 µM and inactive = higher.

Some test systems named below: UACC-62; HCT-116; PC-3; BT-549; NCI-H23; CCRF-CEM; SK-MEL-2; SNB-19; SK-MEL-28; HCC 2998; U-251; HOP-62; OVCAR-5; HCT-15; M14; RPMI-8226; MDA-MB-231; HL-60; NCI-H460; T47D.
What all share (assay): NCI tumour cell line growth inhibition, 48 h

With `CSc1nc2c(c(=O)n1C)N=C(c1ccccc1)[C@H](C(CC(=O)c1ccccc1)c1ccccc1)C(c1ccccc1)N2` (stereo partly specified), the GI50 with UACC-62 was > 100 µM (inactive); in the experiment on HCT-116, 32 µM (inactive); in the experiment on PC-3, 9.84 µM (inactive); in the experiment with BT-549, > 100 µM (inactive); in the experiment with NCI-H23, > 100 µM (inactive); in the experiment with CCRF-CEM it was 44.8 µM (inactive). The GI50 in the experiment on SK-MEL-2, in the experiment on SNB-19, in the experiment on SK-MEL-28, in the experiment on HCC 2998, in the experiment on U-251 and in the experiment with HOP-62 was > 100 µM (inactive) each time. Moreover, the GI50 in the experiment on OVCAR-5 was > 100 µM (inactive); with HCT-15, > 100 µM; in the experiment on M14, > 100 µM (inactive); in the experiment on RPMI-8226 it was 19 µM (inactive); in the experiment on MDA-MB-231, > 100 µM (inactive); in the experiment on HL-60, 5.22 µM (inactive). Also, the GI50 in the experiment on NCI-H460 was 9.2 µM (inactive).
For the molecule `CCC12CCCN(Cc3ccccc3)C1c1c([nH]c3ccccc13)C(C(=O)OC)C2` (stereo unspecified), the GI50 with UACC-62 was > 10 µM (inactive); with HCT-116, 4.08 µM (inactive); with PC-3, > 10 µM (inactive); in the experiment on BT-549, > 10 µM (inactive); with NCI-H23, 8.38 µM (inactive); in the experiment on CCRF-CEM, > 10 µM (inactive). The GI50 in the experiment with SNB-19 was > 10 µM (inactive); in the experiment on T47D it was 5.75 µM (inactive); in the experiment with SK-MEL-28, > 10 µM (inactive); in the experiment with HCC 2998 it was > 10 µM (inactive); with U-251, > 10 µM (inactive); in the experiment on HOP-62, > 10 µM (inactive). The GI50 in the experiment on OVCAR-5 is 7.89 µM (inactive); with HCT-15 it was > 10 µM; in the experiment on M14, > 10 µM (inactive); with RPMI-8226, > 10 µM (inactive); in the experiment with MDA-MB-231, > 10 µM (inactive); with HL-60, 7.83 µM (inactive).
`Cc1ccc(C)n1-c1ccccc1C1C=Cn2c(=O)oc3c(OC(C)C)c(OC(C)C)c(O)c1c32` (stereo unspecified): the GI50 with UACC-62 was 22.8 µM (inactive); with HCT-116, 8.26 µM (inactive); in the experiment with PC-3, 5.11 µM (inactive); in the experiment with BT-549, 43.5 µM (inactive); with NCI-H23, 13.3 µM (inactive); in the experiment with CCRF-CEM it was 18 µM (inactive). Also, the GI50 in the experiment with SK-MEL-2 is 7.33 µM (inactive); in the experiment with SNB-19 it was > 100 µM (inactive); in the experiment with SK-MEL-28, 28.6 µM (inactive); in the experiment with HCC 2998, 8.57 µM (inactive); in the experiment on U-251, 25.8 µM (inactive); in the experiment on HOP-62, 73.5 µM (inactive). In addition, the GI50 with OVCAR-5 is > 100 µM (inactive); in the experiment with HCT-15, 15.7 µM; in the experiment on M14, 22.9 µM (inactive); in the experiment on RPMI-8226 it was 4.9 µM (inactive); in the experiment on MDA-MB-231, 5.13 µM (inactive); in the experiment on HL-60, 8.75 µM (inactive). Further, in the experiment on NCI-H460, the GI50 was 22.3 µM (inactive).
For `CC(C)(CNC(=O)/C(Cl)=C(/Cl)C(=O)O)CNC(=O)/C(Cl)=C(/Cl)C(=O)O`, the GI50 with UACC-62 was > 100 µM (inactive); in the experiment with HCT-116 it was 36.2 µM (inactive); in the experiment on PC-3 it was > 100 µM (inactive); with BT-549, > 100 µM (inactive); in the experiment on CCRF-CEM, 39.3 µM (inactive); with SK-MEL-2 it was > 100 µM (inactive). The GI50 in the experiment with SNB-19 is > 100 µM (inactive); in the experiment on T47D, 92.7 µM (inactive); in the experiment with SK-MEL-28, > 100 µM (inactive); in the experiment with HCC 2998 it was > 100 µM (inactive); in the experiment on U-251, > 100 µM (inactive); in the experiment on HOP-62, > 100 µM (inactive). For the same molecule, the GI50 in the experiment on OVCAR-5 is > 100 µM (inactive); in the experiment with HCT-15, > 10 µM; in the experiment on RPMI-8226 it was 22.6 µM (inactive); in the experiment with HL-60 it was 34 µM (inactive); with NCI-H460 it was > 100 µM (inactive).
On to `Nc1ccc(Oc2ccc(C3(c4ccc(Oc5ccc(N)cc5)cc4)C4CC5CC(C4)CC3C5)cc2)cc1`, for which the GI50 was 17.3 µM (inactive) in the experiment on UACC-62; 0.782 µM (active) in the experiment with HCT-116; 5.7 µM (inactive) with PC-3; 11.6 µM (inactive) in the experiment on BT-549; 13.8 µM (inactive) with NCI-H23; 3.03 µM (inactive) with CCRF-CEM. Besides, the GI50 in the experiment with SK-MEL-2 is 23 µM (inactive); with SNB-19, 21.4 µM (inactive); in the experiment on SK-MEL-28, 16.5 µM (inactive); in the experiment on HCC 2998, 0.322 µM (active); in the experiment on U-251 it was 0.231 µM (active); with HOP-62 it was 11.8 µM (inactive). The GI50 is 19.9 µM (inactive) with OVCAR-5; 4.94 µM with HCT-15; 3.2 µM (inactive) in the experiment with M14; 3 µM (inactive) with RPMI-8226; 17 µM (inactive) in the experiment with MDA-MB-231; 5 µM (inactive) in the experiment with HL-60. For the same molecule, the GI50 in the experiment on NCI-H460 is 2.42 µM (inactive).
Turning to `COc1ccc(N2C(=O)C3c4[nH]c5ccccc5c4C4CCC(C(C)C)CC4C3C2=O)cc1` (stereo unspecified), the GI50 is > 100 µM (inactive) in the experiment on UACC-62; > 100 µM (inactive) in the experiment with HCT-116; > 100 µM (inactive) with PC-3; > 100 µM (inactive) in the experiment on BT-549; > 100 µM (inactive) in the experiment on NCI-H23; 0.343 µM (active) in the experiment on CCRF-CEM. Further, the GI50 is > 100 µM (inactive) in the experiment on SK-MEL-2; > 100 µM (inactive) in the experiment with SNB-19; > 100 µM (inactive) in the experiment on T47D; > 100 µM (inactive) with SK-MEL-28; > 100 µM (inactive) in the experiment on HCC 2998; 38.8 µM (inactive) with U-251. In addition, the GI50 in the experiment with HOP-62 was 33 µM (inactive); in the experiment on OVCAR-5 it was > 100 µM (inactive); in the experiment with HCT-15 it was > 100 µM; with M14, > 100 µM (inactive); in the experiment on RPMI-8226, > 100 µM (inactive); in the experiment with MDA-MB-231 it was > 100 µM (inactive). Moreover, the GI50 in the experiment on NCI-H460 was > 100 µM (inactive).
As for `CN(C(=O)C1CCCCCC1=O)c1ccccc1Cl` (stereo unspecified), the GI50 with HCT-116, in the experiment with BT-549, with NCI-H23, with SNB-19, in the experiment on T47D and with SK-MEL-28 was > 100 µM (inactive) each time. Moreover, the GI50 with U-251 was > 100 µM (inactive); in the experiment on HOP-62, > 100 µM (inactive); in the experiment on OVCAR-5 it was > 100 µM (inactive); in the experiment with HCT-15, > 100 µM; with M14 it was > 100 µM (inactive); in the experiment with RPMI-8226, > 100 µM (inactive). Also, the GI50 in the experiment with MDA-MB-231 and in the experiment on NCI-H460 was > 100 µM (inactive) throughout.
Turning to `COC(=O)c1ccc(/C=C2\CCc3ccccc3C2=O)cc1`, the GI50 with UACC-62, in the experiment on HCT-116, in the experiment with PC-3, with BT-549, with NCI-H23 and in the experiment with CCRF-CEM was > 100 µM (inactive) each time. The GI50 with SNB-19, in the experiment on T47D, with SK-MEL-28, in the experiment with HCC 2998, in the experiment on U-251 and in the experiment with HOP-62 was > 100 µM (inactive) each time. Also, the GI50 was > 100 µM (inactive) in the experiment on OVCAR-5; > 100 µM with HCT-15; > 100 µM (inactive) with M14; > 100 µM (inactive) in the experiment on RPMI-8226; > 100 µM (inactive) in the experiment with MDA-MB-231; > 100 µM (inactive) in the experiment with HL-60. Further, the GI50 in the experiment on NCI-H460 is > 100 µM (inactive).
With `S=C1Nc2cnc3ccccc3c2SC1c1ccccc1` (stereo unspecified), the GI50 in the experiment on UACC-62 was > 100 µM (inactive); with HCT-116, > 100 µM (inactive); in the experiment with PC-3, > 100 µM (inactive); with BT-549, > 100 µM (inactive); in the experiment on NCI-H23, 96.4 µM (inactive); in the experiment on SNB-19, > 100 µM (inactive). Besides, the GI50 in the experiment with T47D was > 100 µM (inactive); in the experiment with SK-MEL-28, 92.3 µM (inactive); in the experiment on U-251 it was > 100 µM (inactive); in the experiment with HOP-62 it was 42.9 µM (inactive); in the experiment with OVCAR-5 it was > 100 µM (inactive); in the experiment on HCT-15, > 100 µM. For the same molecule, the GI50 in the experiment on M14, in the experiment with RPMI-8226, in the experiment with MDA-MB-231, with HL-60 and with NCI-H460 was > 100 µM (inactive) in each case.
On to `CC(C)[Si](Oc1ccc(CC2N(C(=O)c3ccc([N+](=O)[O-])cc3)C(CCc3ccccc3)CC2(C)C=O)cc1)(C(C)C)C(C)C` (stereo unspecified), for which the GI50 with UACC-62 was > 100 µM (inactive); in the experiment on PC-3, > 100 µM (inactive); with BT-549, 21.3 µM (inactive); in the experiment on NCI-H23, 27.8 µM (inactive); in the experiment on CCRF-CEM it was > 100 µM (inactive); in the experiment with SK-MEL-2, 86.7 µM (inactive). In addition, the GI50 is 15.6 µM (inactive) in the experiment on SNB-19; > 100 µM (inactive) in the experiment with T47D; > 100 µM (inactive) with SK-MEL-28; > 100 µM (inactive) in the experiment with HCC 2998; 20.5 µM (inactive) in the experiment with U-251; 7.57 µM (inactive) with HOP-62. The GI50 was > 100 µM (inactive) in the experiment on OVCAR-5, 5.6 µM in the experiment on HCT-15, > 100 µM (inactive) in the experiment on RPMI-8226 and 12.9 µM (inactive) in the experiment on MDA-MB-231.
Regarding `CCc1cccc(C(C)C)c1NC(=O)C(=O)C1C(=O)Nc2ccccc2[S+]1[O-]` (stereo unspecified), the GI50 in the experiment on UACC-62, with HCT-116, in the experiment on PC-3, with BT-549, with NCI-H23 and with CCRF-CEM was > 100 µM (inactive) throughout. In addition, the GI50 with SK-MEL-2, with SNB-19, with T47D, with SK-MEL-28, in the experiment with HCC 2998 and in the experiment on U-251 was > 100 µM (inactive) throughout. Further, the GI50 in the experiment with HOP-62 was > 100 µM (inactive); in the experiment on OVCAR-5, > 100 µM (inactive); in the experiment on HCT-15, > 100 µM; with M14 it was > 100 µM (inactive); with RPMI-8226, > 100 µM (inactive); in the experiment on MDA-MB-231, > 100 µM (inactive). Besides, the GI50 in the experiment with NCI-H460 was > 100 µM (inactive).
